Assay results as given in US20240264161A1, “BIOMARKERS AND USES THEREOF” (MetaCurUm Biotech AB, priority 2021, published 2024).

How the values were obtained:
[1] = tested on: PC-3U cells; test: Confocal imaging of abscission (GFP-VPS4A and β-tubulin); type: cell-based, human
Procedure: (A, B and D) Immunofluorescence experiments showing co-localization of AURKB (green) and TβRI (V22, red) during mitosis in human prostate cancer (PC-3U) (A) and human neuroblastoma (KELLY) (B) cells, and of TβRI (V22, green) and β-tubulin (red) throughout the PC-3U mitosis (D). Scale bar, 20 μm. (C) Localization of survivin (green) and TβRI (V22, red) in PC-3U cells throughout the mitosis (E) Decreased co-localization of TβRI and AURKB after treatment of PC-3U cells on ice for 30 min. Scale bar, 20 μm. (F) Representative confocal images showing the localization of green fluorescent protein (GFP)-VPS4A (green) and β-tubulin (red) with or without knockdown of TβRI by siRNA, or treatment with the TβRI kinase inhibitor SB505124. Scale bar, 5 μm. (G) Multinucleated cells were counted after knockdown of TGFBR1. Data presented as mean±SEM, N=3 [Student's t-test, *P<0.05]. Scale bar, 20 μm. […] The gene sets are ordered by normalized enrichment score. Color indicates the adjusted p-value. (I) GSEA plots of the hallmark mitotic spindle (left) and G2/M checkpoint (right) gene sets show their strong association with TGFBR1-correlated genes. […] (J) PC-3U cells were treated or not with SB505124 and TGFβ for 30 minutes, after which cell lysates were analyzed by immunoblotting. […]

[2] = tested on: TβRI; test: Immunoblotting of AURKB phosphorylation after TβRI kinase inhibition; type: cell-based, human; settings: PC-3U cells treated or not with SB505124 and TGFβ for 30 minutes
Procedure: (A, B and D) Immunofluorescence experiments showing co-localization of AURKB (green) and TβRI (V22, red) during mitosis in human prostate cancer (PC-3U) (A) and human neuroblastoma (KELLY) (B) cells, and of TβRI (V22, green) and β-tubulin (red) throughout the PC-3U mitosis (D). Scale bar, 20 μm. (C) Localization of survivin (green) and TβRI (V22, red) in PC-3U cells throughout the mitosis (E) Decreased co-localization of TβRI and AURKB after treatment of PC-3U cells on ice for 30 min. Scale bar, 20 μm. (F) Representative confocal images showing the localization of green fluorescent protein (GFP)-VPS4A (green) and β-tubulin (red) with or without knockdown of TβRI by siRNA, or treatment with the TβRI kinase inhibitor SB505124. Scale bar, 5 μm. (G) Multinucleated cells were counted after knockdown of TGFBR1. Data presented as mean±SEM, N=3 [Student's t-test, *P<0.05]. Scale bar, 20 μm. […] (J) PC-3U cells were treated or not with SB505124 and TGFβ for 30 minutes, after which cell lysates were analyzed by immunoblotting. […]
Cells were washed twice with ice-cold phosphate-buffered saline (PBS) and lysed in ice-cold lysis buffer [150 mM NaCl, 50 mM Tris, pH 8.0, 0.5% (v/v) deoxycholate, 1% (v/v) NP40, 10% (v/v) glycerol and protease inhibitors]. After centrifugation, the supernatants were collected, and protein concentrations determined using the BCA Protein Assay Kit (ThermoFisher Scientific). […]

[3] = molecular target: T1, glutathione-S-transferase (GST)-TβRI, P36897
T1 chain: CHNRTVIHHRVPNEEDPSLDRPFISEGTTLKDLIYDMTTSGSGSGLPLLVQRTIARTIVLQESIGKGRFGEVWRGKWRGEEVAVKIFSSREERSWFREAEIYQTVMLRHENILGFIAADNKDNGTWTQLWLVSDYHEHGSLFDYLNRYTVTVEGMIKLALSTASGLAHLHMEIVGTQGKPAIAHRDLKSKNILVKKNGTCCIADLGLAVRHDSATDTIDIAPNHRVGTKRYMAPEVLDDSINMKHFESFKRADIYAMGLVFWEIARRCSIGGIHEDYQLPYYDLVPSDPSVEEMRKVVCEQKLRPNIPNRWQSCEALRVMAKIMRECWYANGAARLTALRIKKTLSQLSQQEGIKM

[4] = molecular target: T2, Flag-tagged wild-type AURKB
T2 chain: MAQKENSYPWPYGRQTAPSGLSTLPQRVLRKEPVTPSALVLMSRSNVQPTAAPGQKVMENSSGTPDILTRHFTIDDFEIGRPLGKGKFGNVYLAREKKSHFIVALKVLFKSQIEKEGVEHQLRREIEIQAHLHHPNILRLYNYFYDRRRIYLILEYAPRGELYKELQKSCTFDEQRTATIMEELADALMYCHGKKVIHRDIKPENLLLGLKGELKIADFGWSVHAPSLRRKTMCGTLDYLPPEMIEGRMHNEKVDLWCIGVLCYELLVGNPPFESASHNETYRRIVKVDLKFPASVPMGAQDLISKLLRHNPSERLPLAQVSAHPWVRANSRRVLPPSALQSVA

Molecule: Cc1cccc(-c2[nH]c(C(C)(C)C)nc2-c2ccc3c(c2)OCO3)n1 [SB505124]
- effect on abscission [1]: did not affect the abscission
- AURKB phosphorylation [2]: suppressed AURKB phosphorylation

B1: His-AURKB (protein)
chain: T2 chain
- in vitro kinase assay (phosphorylation of GST-TβRI) [3]: His-AURKB phosphorylated glutathione-S-transferase (GST)-TβRI in an in vitro kinase assay

B2: TNF receptor associated factor 6 (TRAF6), endogenous in PC-3U cells (protein)
chain: MSLLNCENSCGSSQSESDCCVAMASSCSAVTKDDSVGGTASTGNLSSSFMEEIQGYDVEFDPPLESKYECPICLMALREAVQTPCGHRFCKACIIKSIRDAGHKCPVDNEILLENQLFPDNFAKREILSLMVKCPNEGCLHKMELRHLEDHQAHCEFALMDCPQCQRPFQKFHINIHILKDCPRRQVSCDNCAASMAFEDKEIHDQNCPLANVICEYCNTILIREQMPNHYDLDCPTAPIPCTFSTFGCHEKMQRNHLARHLQENTQSHMRMLAQAVHSLSVIPDSGYISEVRNFQETIHQLEGRLVRQDHQIRELTAKMETQSMYVSELKRTIRTLEDKVAEIEAQQCNGIYIWKIGNFGMHLKCQEEEKPVVIHSPGFYTGKPGYKLCMRLHLQLPTAQRCANYISLFVHTMQGEYDSHLPWPFQGTIRLTILDQSEAPVRQNHEEIMDAKPELLAFQRPTIPRNPKGFGYVTFMHLEALRQRTFIKDDTLLVRCEVSTRFDMGSLRREGFQPRSTDAGV
- polyubiquitination of AURKB (Flag IP, HA-ubiquitin immunoblot, with or without TRAF6 siRNA) [4]: Knockdown of TRAF6 by siRNA in PC-3U cells suppressed polyubiquitination of AURKB
